In patent US20080057054A1, “Modulation of Phagocytosis in Neurons” (Vlaams Interuniversitair Instituut Voor Biotechnol, priority 2004, published 2008):

Biological target: T1, γ-secretase (Homo sapiens, UniProt P49768)
T1 construct: endogenous in cells; host or cells: HeLa cells
Test: γ-secretase luciferase reporter assay (Gal4VP16 inducer constructs)
Type: cell-based
Set-up: dose or concentration left out as unconfirmed
Conditions: lysed after 16 hrs; for nuclear translocation of the inducer fragment (luciferase activity), APP: APP-Gal4VP16 inducer in Hela cells; for nuclear translocation of the inducer fragment (luciferase activity), Notch: NotchΔE-Gal4VP16 inducer in Hela cells
Text: In wild-type hippocampal neurons, TLN localizes to the plasmalemma whereas in 30% of PS1−/− neurons, TLN additionally accumulates in large somatic structures, the identity of which remained elusive (Annaert et al., 2001). […] Therefore we tested whether TLN is a γ-secretase substrate. In 15 day old PS1−/− hippocampal cultures we could not detect any TLN C-terminal fragment (CTF) as apposed to APP-CTF that readily accumulate. Even upon Semliki Forest Virus (SFV)-induced overexpression, no TLN-CTF was detected. Since no putative mechanism of shedding of the TLN ectodomain is known, we generated a TLNΔE that could serve as a potential γ-secretase substrate. No intracellular domain fragments were however detected indicating the absence of γ-secretase cleavage. […] Release of a potential intracellular domain of TLN can be measured via the activity of luciferase. […] To investigate whether the TLN transmembrane domain could be a γ-secretase substrate in the context of the APP protein, we swapped the transmembrane regions of TLN and APP to create an APP/TLNTMR-chimaera. Even in this case no activity could be detected. Therefore we conclude that TLN is most likely not a γ-secretase substratum.
pSFV constructs encoding human APP, murine TLN and TLNΔE have been described (Annaert et al., 2001). APP and NotchΔE were cloned into the EcoRV site in front of the Gal4VP16 sequence in pIPAdApt vector. A construct encoding 10 aa of the ectodomain, the transmembrane and cytosolic domains of TLN was obtained by PCR and ligated in pGEMT containing the TLN signal peptide (SP). SP-TLNΔE was next cloned into pIPAdApt and GAL 4VP16 was inserted resulting in a pIPAdApt-SP-TLNΔE-Gal4-VP16 construct. For the APP/TLNTMR chimaera, the coding region for APP-TMR was replaced by a PCR fragment encoding the TLN-TMR. Luciferase assay. Hela cells were transfected with 200 ng pFRluc plasmid (UAS-responsive luciferase construct, Stratagene) and 200 ng inducer plasmid using Fugene ([…]) and after 16 hrs lysed and assayed (Victor2, PerkinElmer).

| SMILES | nuclear translocation of the inducer fragment (luciferase activity), APP | nuclear translocation of the inducer fragment (luciferase activity), Notch |
| --- | --- | --- |
| C[C@H](NC(=O)Cc1cc(F)cc(F)c1)C(=O)N[C@H](C(=O)OC(C)(C)C)c1ccccc1 [DAPT] | strongly inhibited | strongly inhibited |
| CC(C)C[C@H](NC(=O)[C@H](Cc1ccccc1)C[C@@H](O)[C@H](Cc1ccccc1)NC(=O)OC(C)(C)C)C(=O)N[C@@H](Cc1ccccc1)C(N)=O [L685,458] | strongly inhibited | strongly inhibited |
